Measurements reported in patent US20070265164A1, “Active Substances for Increasing Pathogenic Defense in Plants and Methods for the Detection Thereof” (Bayer Cropscience GmbH, priority 2004, published 2007).

Assays:
Type in all cases: in vivo
[1] = system: Contig34_s_at, Putative proteinase inhibitor; assay: GEP, barley DNA chip, probe set 2.2; parameters: fold induction: dose or concentration left out as unconfirmed; settings: for fold induction / fold induction at 150 g/ha: Hordeum vulgare, topical, read-out: Expression value, 2.2 Contig34_s_at; for fold induction: rates of Table 1 (S7 500); for fold induction at 150 g/ha: 6 h
Procedure: (§1) Barley plants (cv. Baronesse) were grown in compost-filled pots (diameter: 10 cm) for 10 days in a controlled-environment cabinet under defined light, humidity and temperature conditions (white light, 70% atmospheric humidity, 24° C.). At the time of spray application, the seedlings were approximately 15 cm in size. The test substances selected in this example were molecules which differ markedly in their structure and which have a well documented pronounced safener effect, and other molecules which are known from the literature to have an effect on plant stress and pathogen tolerance (Table 1). The substances were prepared as stock solutions in DMSO (dimethyl sulfoxide) at c=10 mg/ml). This was used for preparing dilutions in water supplemented with 0.2% Agrotin (comprises polyvinyl alcohol, silicones, polysaccharides and pH regulators, manufacturer: Bayer CropScience AG, Monheim, Germany), as wetter, to give the application rates shown in the table. The amount of liquid for the spray application was 800 μl per pot, corresponding to 800 l/ha. For each 800 μl of spray mixture, 16 μl of EC premix: diacetone alcohol=1:6 were additionally added as formulation auxiliaries. The substances listed in Table 1 were applied to the leaves by means of a pneumatic spray pistol. Each substance was sprayed as 2 dosages, and all experiments were carried out as replicates (2 pots per substance). Sprayings with blank formulation without active ingredient were carried out as controls. After 6 hours, the leaves were harvested, frozen in liquid nitrogen and stored at −80° C. until further use. The labeled RNA probes for the DNA chip hybridization were prepared as described in the protocols (Expression Analysis, Technical Manual) from Affymetrix (Affymetrix Inc., 3380 Central Expressway, Santa Clara, Calif., USA). First, total RNA was isolated from in each case 500 mg of the harvested leaves. In each case 10 μg of total RNA was used for the first-strand and second-strand cDNA synthesis. The cDNA was amplified with T7 polymerase and simultaneously labeled with biotin-UTP. In each case, 20 μg of this biotinylated cDNA was employed for the hybridization of the barley genome array (Gene Chip Barleyl, order No.: 511012) from Affymetrix. This DNA microarray comprises DNA sequences of 22 840 genes which are composed of a total of 400 000 EST sequences. Thereafter, the DNA microarrays were washed in the Affymetrix Fluidics Station, stained with streptavidin/phycoerythrin (Molecular Probes, P/N S-866) and scanned with the matching Agilent Laser Scanner (Agilent Gene Array Scanner). The fluorescent data obtained were analyzed with the software Microarray Suite 5 from Affymetrix. After the quality had been checked, all DNA chip analyses were stored in a database. To determine the relative expression values for genes (induction factors, repression factors), test and control chips were compared with each other, and the scoring function set by the Affymetrix software was used as the basis. The 2 biological replications of one experiment were compared in each case with 2 control chips (blank formulation), and the 4 expression values obtained for each gene were used for calculating the median. These medians are shown in the results tables as induction factors. Similarity comparisons of expression profiles from different experiments and cluster analyses were carried out using the software GeneMaths 1.5 from Applied Maths (Applied Maths, Keistraat 120, 9830 Sint-Martens-Latem, Belgium).
(§2) Gene groups from specific metabolic pathways and signal transduction chains were put together by key word search in the annotations, of the genes, which were also provided by Affymetrix, and by Blast analyses (homology comparisons) of the DNA target sequences, i.e. of the positive sequence (identified on the basis of a modified expression profile) identified on the DNA chip, using gene sequences from other organisms, preferably plant organisms, with characterized functions. […]

[2] = system: Contig1736_at, Lipoxygenase 1 (EC 1.13.11.12); assay: GEP, barley DNA chip, probe set 1.10; parameters: fold induction: dose or concentration left out as unconfirmed; settings: for fold induction / fold induction at 150 g/ha: Hordeum vulgare, read-out: Expression value, 1.10 Contig1736_at; for fold induction: rates of Table 1 (S7 500); for fold induction at 150 g/ha: 6 h
Procedure: as §1, §2

[3] = system: Contig5607_s_at, Pathogen-related protein (PirT06168); assay: GEP, barley DNA chip, probe set 4.3; parameters: fold induction: dose or concentration left out as unconfirmed; settings: for fold induction / fold induction at 150 g/ha: Hordeum vulgare, topical, read-out: Expression value, 4.3 Contig5607_s_at; for fold induction: rates of Table 1 (S7 500); for fold induction at 150 g/ha: 6 h
Procedure: as §1, §2

[4] = system: Contig2992_s_at, Chitinase (EC 3.2.1.14); assay: GEP, barley DNA chip, probe set 5.2; parameters: fold induction: dose or concentration left out as unconfirmed; settings: for fold induction / fold induction at 150 g/ha: Hordeum vulgare, topical, read-out: Expression value, 5.2 Contig2992_s_at; for fold induction: rates of Table 1 (S7 500); for fold induction at 150 g/ha: 6 h
Procedure: as §1, §2

[5] = system: Contig13413_at, Similar to lipases; assay: GEP, barley DNA chip, probe set 1.17; parameters: fold induction: dose or concentration left out as unconfirmed; settings: for fold induction / fold induction at 150 g/ha: Hordeum vulgare, topical, read-out: Expression value, 1.17 Contig13413_at; for fold induction: rates of Table 1 (S7 500); for fold induction at 150 g/ha: 6 h
Procedure: as §1, §2

[6] = system: Contig5146_at, Probable 12-oxophytodienoate reductase (EC 1.3.1.42); assay: GEP, barley DNA chip, probe set 1.4; parameters: fold induction: dose or concentration left out as unconfirmed; settings: for fold induction / fold induction at 150 g/ha: Hordeum vulgare, topical, read-out: Expression value, 1.4 Contig5146_at; for fold induction: rates of Table 1 (S7 500); for fold induction at 150 g/ha: 6 h
Procedure: as §1, §2

Rhopalosiphum padi = assay: Repellent effect of safener-treated plants on phytopathogenic insects; settings: barley sprayed with 150 g a.i./ha, infested 6 h or 24 h after application, average
Procedure: Barley plants (cv. Baronesse) were grown as described in Example 1 and, after 10 days, treated by spray application with 150 g a.i./ha of isoxadifen-ethyl (S 3) or blank formulation. The experiments were carried out in replications of in each case 10 pots.
6 hours or 24 hours after the substance had been applied, all pots were infested uniformly with a population of the phytopathogenic aphid Rhopalosiphum padi. The experiments were evaluated after 7 days and 14 days by counting the animals on the leaves.

[7] = barley leaves 6 h after spray application, median induction factor vs control
[8] = barley leaves 6 h after spray application, rates of Table 1 (150 g a.i./ha, S7 500), median induction factor vs control

SMILES | fold induction [1, 7] | fold induction [2, 7] | fold induction [3, 7] | fold induction [4, 7] | fold induction [5, 7] | fold induction [6, 7] | further results
COC(=O)C1=NN(c2ccc(Cl)cc2Cl)C(C)(C(=O)OC)C1 (centres unmarked) [S1, Mefenpyr-dimethyl] | 1 | 1 | 18.6 | 6.5 | 1 | 7.73 | –
O=C(O)C1=NN(c2ccc(Cl)cc2Cl)C(c2ccc(F)cc2)C1 (centres unmarked) [S2] | 1 | 1 | 15.6 | 1 | 1 | 4.47 | –
CCOC(=O)C1=NOC(c2ccccc2)(c2ccccc2)C1 [S3, Isoxadifen-ethyl] | – | – | – | – | – | – | fold induction at 150 g/ha [1]: 1; fold induction at 150 g/ha [2]: 2.91; fold induction at 150 g/ha [3]: 13.4; fold induction at 150 g/ha [4]: 2.19; fold induction at 150 g/ha [5]: 1; fold induction at 150 g/ha [6]: 4.5; Aphid populations less than the controls (Rhopalosiphum padi; after 7 days): 50%; Aphid populations less than the controls (Rhopalosiphum padi; after 14 days): 70%
CCCCCC(C)OC(=O)COc1ccc(Cl)c2cccnc12 (centres unmarked) [S4, Cloquintocet-mexyl] | 1 | 1 | 18.4 | 1 | 1 | 4.72 | –
CCOC(=O)C(Oc1ccc(Cl)c2cccnc12)C(=O)OCC [S5] | 1 | 1 | 8.75 | 3.12 | 1 | 5.35 | –
NC(=O)c1ccc(C(F)(F)F)nc1O [S6] | 1 | 1 | 9.99 | 2.27 | 1 | 6.77 | –
O=C(NO)c1ccccc1O [S7, Salicyl hydroxamate] | – | – | – | – | – | – | Expression value, 2.2 Contig34_s_at [1, 8]: 4.50 x times; Expression value, 1.10 Contig1736_at [2, 8]: 1.00 x times; Expression value, 4.3 Contig5607_s_at [3, 8]: 1.00 x times; Expression value, 5.2 Contig2992_s_at [4, 8]: 1.00 x times; Expression value, 1.17 Contig13413_at [5, 8]: 1.00 x times; Expression value, 1.4 Contig5146_at [6, 8]: 1.00 x times
CSC(=O)c1cccc2nnsc12 [S8, Acibenzolar-S-methyl] | 3.68 | 1 | 1 | 1 | 2.17 | 1 | –
O=C(O)c1cc(Cl)nc(Cl)c1 [S9] | – | – | – | – | – | – | fold induction at 150 g/ha [1]: 1; fold induction at 150 g/ha [2]: 1; fold induction at 150 g/ha [3]: 1; fold induction at 150 g/ha [4]: 2.14; fold induction at 150 g/ha [5]: 1; fold induction at 150 g/ha [6]: 1
O=C(O)c1cc(Cl)cc(Cl)c1O [S10] | 2.08 | 1 | 1 | 1 | 1 | 1 | –
